The values that follow are results of earlier work, collected in patent publication US7541371B2, “Method for treating a motor neuron disease” (Eisai R&D Management Co., Ltd., priority 2006, dated 2009).

Molecules are shown by their SMILES.

This data set has as its target T1, serotonin 1A receptor (Rattus norvegicus, UniProt P19327).
T1 construct: mixed with the receptor fraction of the hippocampus; from tissue; host or cells: rat hippocampus
T1 sequence (P19327 1-422): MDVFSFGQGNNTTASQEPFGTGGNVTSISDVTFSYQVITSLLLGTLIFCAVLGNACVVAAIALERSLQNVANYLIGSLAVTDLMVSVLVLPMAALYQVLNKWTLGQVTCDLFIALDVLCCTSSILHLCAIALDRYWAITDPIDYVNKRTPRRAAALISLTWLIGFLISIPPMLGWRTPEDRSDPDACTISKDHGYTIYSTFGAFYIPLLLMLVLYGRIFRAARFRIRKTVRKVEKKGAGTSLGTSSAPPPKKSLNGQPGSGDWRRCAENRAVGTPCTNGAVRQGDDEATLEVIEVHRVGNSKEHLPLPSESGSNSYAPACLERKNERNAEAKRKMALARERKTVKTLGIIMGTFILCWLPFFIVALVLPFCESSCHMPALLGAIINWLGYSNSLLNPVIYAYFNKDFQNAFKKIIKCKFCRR
The settings on record: rat hippocampus receptor fraction, 0.5 nM [3H]8-hydroxy-dipropylaminotetralin; compounds 7 and 8, WO 99/18077; read-out: 5HT1a; cited from earlier work.

With `CCN1CCN(c2nc(-c3ccc(OCC(C)(C)O)cc3)cc3sccc23)CC1` [Compound 8, 1-{4-[4-(4-ethylpiperazin-1-yl)thieno[3,2-c]pyridin-6-yl]phenoxy}-2-methylpropan-2-ol], the Ki is 54.9 nM.
